According to PubChem BioAssay (NCI):
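All cell lines were grown in 96-well plates and treated with compound for 48 hours. At the GI50, growth is halved. The concentration for full growth arrest is given as TGI.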

Assays:
Test in all cases: growth of human tumour cells (NCI), 48 h
786-0 renal = tested on: 786-0 renal
HOP-92 NSCLC = tested on: HOP-92 NSCLC
OVCAR-5 ovarian = tested on: OVCAR-5 ovarian
NCI-H460 lung = tested on: NCI-H460 lung
MALME-3M melanoma = tested on: MALME-3M melanoma
A498 renal = tested on: A498 renal
T-47D breast = tested on: T-47D breast
M14 melanoma = tested on: M14 melanoma
MCF7 breast = tested on: MCF7 breast
HOP-62 NSCLC = tested on: HOP-62 NSCLC
U251 CNS = tested on: U251 CNS
KM12 colon = tested on: KM12 colon
OVCAR-4 ovarian = tested on: OVCAR-4 ovarian
NCI-H226 lung = tested on: NCI-H226 lung
RPMI-8226 leukemia = tested on: RPMI-8226 leukemia
SF-295 CNS = tested on: SF-295 CNS
SF-268 CNS = tested on: SF-268 CNS
MOLT-4 leukemia = tested on: MOLT-4 leukemia
NCI-H522 lung = tested on: NCI-H522 lung
UO-31 renal = tested on: UO-31 renal
SN12C renal = tested on: SN12C renal
HL-60(TB) leukemia = tested on: HL-60(TB) leukemia
SW-620 colon = tested on: SW-620 colon
HCC-2998 colon = tested on: HCC-2998 colon
COLO 205 colon = tested on: COLO 205 colon
OVCAR-8 ovarian = tested on: OVCAR-8 ovarian
NCI-H23 lung = tested on: NCI-H23 lung
SNB-75 CNS = tested on: SNB-75 CNS
PC-3 prostate = tested on: PC-3 prostate
LOX IMVI melanoma = tested on: LOX IMVI melanoma
UACC-257 melanoma = tested on: UACC-257 melanoma
IGROV1 ovarian = tested on: IGROV1 ovarian
RXF 393 renal = tested on: RXF 393 renal
CAKI-1 renal = tested on: CAKI-1 renal
SK-MEL-28 melanoma = tested on: SK-MEL-28 melanoma
UACC-62 melanoma = tested on: UACC-62 melanoma
SK-MEL-2 melanoma = tested on: SK-MEL-2 melanoma
BT-549 breast = tested on: BT-549 breast
TK-10 renal = tested on: TK-10 renal
SK-OV-3 ovarian = tested on: SK-OV-3 ovarian
MDA-MB-435 = tested on: MDA-MB-435
EKVX NSCLC = tested on: EKVX NSCLC
MDA-MB-231 breast = tested on: MDA-MB-231 breast
SR leukemia = tested on: SR leukemia
OVCAR-3 ovarian = tested on: OVCAR-3 ovarian
NCI/ADR-RES ovarian = tested on: NCI/ADR-RES ovarian
HT29 colon = tested on: HT29 colon
ACHN renal = tested on: ACHN renal
HCT-116 colon = tested on: HCT-116 colon
DU-145 prostate = tested on: DU-145 prostate
A549 NSCLC = tested on: A549 NSCLC
SF-539 CNS = tested on: SF-539 CNS
HCT-15 colon = tested on: HCT-15 colon
HS 578T breast = tested on: HS 578T breast
SK-MEL-5 melanoma = tested on: SK-MEL-5 melanoma
CCRF-CEM leukemia = tested on: CCRF-CEM leukemia
K-562 leukemia = tested on: K-562 leukemia
SNB-19 CNS = tested on: SNB-19 CNS

CCC(=O)Nc1cc(Nc2cc(NC3CC3)n3ncc(C#N)c3n2)ccc1C
GI50 (786-0 renal): 3.46 µM | TGI (786-0 renal): 43.5 µM | GI50 (HOP-92 NSCLC): 0.449 µM | TGI (HOP-92 NSCLC): 6.39 µM | GI50 (OVCAR-5 ovarian): 0.955 µM | TGI (OVCAR-5 ovarian): 33 µM | GI50 (NCI-H460 lung): 0.772 µM | TGI (NCI-H460 lung): 12.3 µM | GI50 (MALME-3M melanoma): 2.2 µM | TGI (MALME-3M melanoma): 69.3 µM | GI50 (A498 renal): 0.0965 µM | TGI (A498 renal): 1.16 µM | GI50 (T-47D breast): 1.05 µM | TGI (T-47D breast): 9.87 µM | TGI (M14 melanoma): 12.5 µM | GI50 (MCF7 breast): 0.421 µM | TGI (MCF7 breast): 10.7 µM | GI50 (HOP-62 NSCLC): 1.84 µM | TGI (HOP-62 NSCLC): 25.7 µM | GI50 (U251 CNS): 0.94 µM | TGI (U251 CNS): > 100 µM | GI50 (KM12 colon): 1.81 µM | TGI (KM12 colon): 47 µM | GI50 (OVCAR-4 ovarian): 1.66 µM | TGI (OVCAR-4 ovarian): 67.1 µM | GI50 (NCI-H226 lung): 1.51 µM | TGI (NCI-H226 lung): 16.6 µM | GI50 (RPMI-8226 leukemia): 1.77 µM | TGI (RPMI-8226 leukemia): 17.6 µM | GI50 (SF-295 CNS): 2.34 µM | TGI (SF-295 CNS): 14.8 µM | GI50 (SF-268 CNS): 2.32 µM | TGI (SF-268 CNS): 57.4 µM | GI50 (MOLT-4 leukemia): 3.93 µM | TGI (MOLT-4 leukemia): 52.2 µM | GI50 (NCI-H522 lung): 2.48 µM | TGI (NCI-H522 lung): 27.1 µM | GI50 (UO-31 renal): 2.09 µM | TGI (UO-31 renal): 13.7 µM | GI50 (SN12C renal): 3.16 µM | TGI (SN12C renal): > 100 µM | GI50 (HL-60(TB) leukemia): 0.6 µM | TGI (HL-60(TB) leukemia): 12.3 µM | GI50 (SW-620 colon): 1.28 µM | TGI (SW-620 colon): 19 µM | GI50 (HCC-2998 colon): 2.46 µM | TGI (HCC-2998 colon): 18.9 µM | GI50 (COLO 205 colon): 0.981 µM | TGI (COLO 205 colon): 16.3 µM | GI50 (OVCAR-8 ovarian): 3.63 µM | TGI (OVCAR-8 ovarian): > 100 µM | GI50 (NCI-H23 lung): 1.12 µM | TGI (NCI-H23 lung): 14.9 µM | GI50 (SNB-75 CNS): 0.0521 µM | TGI (SNB-75 CNS): 0.974 µM | GI50 (PC-3 prostate): 1.73 µM | TGI (PC-3 prostate): 23.3 µM | GI50 (LOX IMVI melanoma): 1.57 µM | TGI (LOX IMVI melanoma): 12.9 µM | GI50 (UACC-257 melanoma): 1.77 µM | TGI (UACC-257 melanoma): 53.6 µM | GI50 (IGROV1 ovarian): 1.27 µM | TGI (IGROV1 ovarian): 6.29 µM | GI50 (RXF 393 renal): 3.29 µM | TGI (RXF 393 renal): 15.5 µM | GI50 (CAKI-1 renal): 0.43 µM | TGI (CAKI-1 renal): 3.29 µM | GI50 (SK-MEL-28 melanoma): 4.02 µM | TGI (SK-MEL-28 melanoma): > 100 µM | GI50 (UACC-62 melanoma): 1.22 µM | TGI (UACC-62 melanoma): 12.1 µM | GI50 (SK-MEL-2 melanoma): 2.65 µM | TGI (SK-MEL-2 melanoma): 18.6 µM | GI50 (BT-549 breast): 1.11 µM | TGI (BT-549 breast): 7.45 µM | GI50 (TK-10 renal): 0.987 µM | TGI (TK-10 renal): 7.52 µM | GI50 (SK-OV-3 ovarian): 1.6 µM | TGI (SK-OV-3 ovarian): 9.04 µM | GI50 (MDA-MB-435): 2.06 µM | TGI (MDA-MB-435): 30.7 µM | GI50 (EKVX NSCLC): 1.16 µM | TGI (EKVX NSCLC): 45 µM | GI50 (MDA-MB-231 breast): 1.63 µM | TGI (MDA-MB-231 breast): 23.3 µM | GI50 (SR leukemia): 1.78 µM | TGI (SR leukemia): > 100 µM | GI50 (OVCAR-3 ovarian): 1.1 µM | TGI (OVCAR-3 ovarian): 14.6 µM | GI50 (NCI/ADR-RES ovarian): 2.99 µM | TGI (NCI/ADR-RES ovarian): 30.3 µM | GI50 (HT29 colon): 2.18 µM | TGI (HT29 colon): > 100 µM | GI50 (ACHN renal): 1.67 µM | TGI (ACHN renal): 15.6 µM | GI50 (HCT-116 colon): 0.737 µM | TGI (HCT-116 colon): 12 µM | GI50 (DU-145 prostate): 3.96 µM | TGI (DU-145 prostate): 73.3 µM | GI50 (A549 NSCLC): 1.8 µM | TGI (A549 NSCLC): 17.3 µM | GI50 (SF-539 CNS): 1.81 µM | TGI (SF-539 CNS): 46.9 µM | GI50 (HCT-15 colon): 1.25 µM | TGI (HCT-15 colon): 29.6 µM | GI50 (HS 578T breast): 0.216 µM | TGI (HS 578T breast): 1.03 µM | GI50 (SK-MEL-5 melanoma): 1.6 µM | TGI (SK-MEL-5 melanoma): 9.15 µM | GI50 (CCRF-CEM leukemia): 1.68 µM | TGI (CCRF-CEM leukemia): > 100 µM | GI50 (K-562 leukemia): 1.1 µM | TGI (K-562 leukemia): > 100 µM | GI50 (SNB-19 CNS): 1.77 µM | TGI (SNB-19 CNS): > 100 µM
